Data taken from the NIST ThermoML archive (doi:10.1021/je400056z).

Assay: xn = mol fraction of the nth substance listed
Settings: Liquid, Vibrating tube method

CCCCCCC [heptane] + O=C=O
Settings	mass density [kg/m3]
322.91 K, 22022 kPa, x2 = 0.7514	759.49
322.91 K, 23010 kPa, x2 = 0.7514	762.14
322.91 K, 23983 kPa, x2 = 0.7514	764.78
322.91 K, 24907 kPa, x2 = 0.7514	767.21
322.94 K, 3016 kPa, x2 = 0.0218	663.11
322.94 K, 4008 kPa, x2 = 0.0218	664.28
322.94 K, 5006 kPa, x2 = 0.0218	665.41
322.94 K, 5006 kPa, x2 = 0.5085	691.2
322.94 K, 6002 kPa, x2 = 0.0218	666.44
322.94 K, 6004 kPa, x2 = 0.5085	693.82
322.94 K, 7003 kPa, x2 = 0.0218	667.61
322.94 K, 7005 kPa, x2 = 0.5085	696.6
322.94 K, 8006 kPa, x2 = 0.0218	668.67
322.94 K, 8009 kPa, x2 = 0.5085	698.81
322.94 K, 8995 kPa, x2 = 0.0218	669.76
322.94 K, 9010 kPa, x2 = 0.5085	701.04
322.94 K, 10002 kPa, x2 = 0.0218	670.79
322.94 K, 10006 kPa, x2 = 0.5085	703.24
322.94 K, 10997 kPa, x2 = 0.5085	705.29
322.94 K, 11002 kPa, x2 = 0.0218	671.78
322.94 K, 11999 kPa, x2 = 0.0218	672.82
322.94 K, 12001 kPa, x2 = 0.5085	707.34
322.94 K, 12998 kPa, x2 = 0.5085	709.37
322.94 K, 13000 kPa, x2 = 0.0218	673.79
322.94 K, 14001 kPa, x2 = 0.0218	674.79
322.94 K, 14004 kPa, x2 = 0.5085	711.26
322.94 K, 15002 kPa, x2 = 0.0218	675.77
322.94 K, 15009 kPa, x2 = 0.5085	713.17
322.94 K, 15998 kPa, x2 = 0.0218	676.69
322.94 K, 16004 kPa, x2 = 0.5085	715.02
322.94 K, 17002 kPa, x2 = 0.0218	677.65
322.94 K, 17009 kPa, x2 = 0.5085	716.84
322.94 K, 18003 kPa, x2 = 0.0218	678.53
322.94 K, 18003 kPa, x2 = 0.5085	718.61
322.94 K, 18995 kPa, x2 = 0.0218	679.45
322.94 K, 19009 kPa, x2 = 0.5085	720.34
322.94 K, 20004 kPa, x2 = 0.5085	722.03
322.94 K, 20009 kPa, x2 = 0.0218	680.41
322.94 K, 20999 kPa, x2 = 0.0218	681.28
322.94 K, 21007 kPa, x2 = 0.5085	723.66
322.94 K, 21995 kPa, x2 = 0.5085	725.31
322.94 K, 22005 kPa, x2 = 0.0218	682.14
322.94 K, 23002 kPa, x2 = 0.5085	726.96
322.94 K, 23011 kPa, x2 = 0.0218	683.03
322.94 K, 24002 kPa, x2 = 0.5085	728.57
322.94 K, 24009 kPa, x2 = 0.0218	683.94
322.94 K, 24961 kPa, x2 = 0.0218	684.87
322.94 K, 25011 kPa, x2 = 0.5085	730.19
322.96 K, 12028 kPa, x2 = 0.9496	666.43
322.96 K, 13010 kPa, x2 = 0.9496	691.64
322.96 K, 13994 kPa, x2 = 0.9496	711.79
322.96 K, 14997 kPa, x2 = 0.9496	728.42
322.96 K, 16006 kPa, x2 = 0.9496	742.98
322.96 K, 17008 kPa, x2 = 0.9496	755.69
322.96 K, 17999 kPa, x2 = 0.9496	766.84
322.96 K, 19001 kPa, x2 = 0.9496	777.08
322.96 K, 20001 kPa, x2 = 0.9496	786.26
322.96 K, 20994 kPa, x2 = 0.9496	794.84
322.96 K, 21997 kPa, x2 = 0.9496	802.85
322.96 K, 23019 kPa, x2 = 0.9496	810.46
322.96 K, 23997 kPa, x2 = 0.9496	817.33
322.96 K, 24395 kPa, x2 = 0.9496	820.02
332.7 K, 12055 kPa, x2 = 0.9496	554.72
332.7 K, 13001 kPa, x2 = 0.9496	599.39
332.7 K, 14003 kPa, x2 = 0.9496	633.33
332.7 K, 14995 kPa, x2 = 0.9496	659.11
332.7 K, 16003 kPa, x2 = 0.9496	680.52
332.7 K, 16980 kPa, x2 = 0.9496	697.86
332.7 K, 18002 kPa, x2 = 0.9496	713.39
332.7 K, 19004 kPa, x2 = 0.9496	727.03
332.7 K, 19979 kPa, x2 = 0.9496	738.9
332.7 K, 20995 kPa, x2 = 0.9496	749.98
332.7 K, 22006 kPa, x2 = 0.9496	760
332.7 K, 23011 kPa, x2 = 0.9496	769.32
332.7 K, 24046 kPa, x2 = 0.9496	778.17
332.7 K, 24505 kPa, x2 = 0.9496	781.98
332.72 K, 5013 kPa, x2 = 0.3148	672.27
332.72 K, 6004 kPa, x2 = 0.3148	673.82
332.72 K, 7000 kPa, x2 = 0.3148	675.27
332.72 K, 8008 kPa, x2 = 0.3148	676.79
332.72 K, 9003 kPa, x2 = 0.3148	678.48
332.72 K, 10007 kPa, x2 = 0.3148	680.17
332.72 K, 11008 kPa, x2 = 0.3148	681.84
332.72 K, 11995 kPa, x2 = 0.3148	683.4
332.72 K, 12994 kPa, x2 = 0.3148	684.97
332.72 K, 14002 kPa, x2 = 0.3148	686.5
332.72 K, 15009 kPa, x2 = 0.3148	688.01
332.72 K, 16005 kPa, x2 = 0.3148	689.47
332.72 K, 16994 kPa, x2 = 0.3148	690.88
332.72 K, 17996 kPa, x2 = 0.3148	692.28
332.72 K, 19002 kPa, x2 = 0.3148	693.66
332.72 K, 20001 kPa, x2 = 0.3148	695.02
332.72 K, 21004 kPa, x2 = 0.3148	696.34
332.72 K, 22014 kPa, x2 = 0.3148	697.64
332.72 K, 22998 kPa, x2 = 0.3148	698.95
332.72 K, 24000 kPa, x2 = 0.3148	700.22
332.72 K, 25010 kPa, x2 = 0.3148	701.53
332.73 K, 9976 kPa, x2 = 0.7514	687.42
332.73 K, 11027 kPa, x2 = 0.7514	694.77
332.73 K, 12005 kPa, x2 = 0.7514	701.07
332.73 K, 13004 kPa, x2 = 0.7514	706.72
332.73 K, 14002 kPa, x2 = 0.7514	712.07
332.73 K, 15007 kPa, x2 = 0.7514	716.96
332.73 K, 16008 kPa, x2 = 0.7514	721.73
332.73 K, 17006 kPa, x2 = 0.7514	726.16
332.73 K, 17992 kPa, x2 = 0.7514	730.25
332.73 K, 19005 kPa, x2 = 0.7514	734.18
332.73 K, 19992 kPa, x2 = 0.7514	737.97
332.73 K, 21048 kPa, x2 = 0.7514	741.67
332.73 K, 21991 kPa, x2 = 0.7514	745.02
332.73 K, 22997 kPa, x2 = 0.7514	748.43
332.73 K, 23997 kPa, x2 = 0.7514	751.86
332.73 K, 24860 kPa, x2 = 0.7514	754.69
332.8 K, 3011 kPa, x2 = 0.0218	654.41
332.8 K, 4004 kPa, x2 = 0.0218	655.67
332.8 K, 5003 kPa, x2 = 0.0218	656.85
332.8 K, 6000 kPa, x2 = 0.0218	658.03
332.8 K, 7004 kPa, x2 = 0.0218	659.2
332.8 K, 8007 kPa, x2 = 0.0218	660.37
332.8 K, 9001 kPa, x2 = 0.0218	661.51
332.8 K, 10004 kPa, x2 = 0.0218	662.62
332.8 K, 10998 kPa, x2 = 0.0218	663.71
332.8 K, 12002 kPa, x2 = 0.0218	664.82
332.8 K, 12996 kPa, x2 = 0.0218	665.83
332.8 K, 13999 kPa, x2 = 0.0218	666.94
332.8 K, 15004 kPa, x2 = 0.0218	667.94
332.8 K, 16005 kPa, x2 = 0.0218	668.95
332.8 K, 16998 kPa, x2 = 0.0218	669.95
332.8 K, 18005 kPa, x2 = 0.0218	670.91
332.8 K, 19003 kPa, x2 = 0.0218	671.91
332.8 K, 20002 kPa, x2 = 0.0218	672.83
332.8 K, 21008 kPa, x2 = 0.0218	673.8
332.8 K, 21997 kPa, x2 = 0.0218	674.76
332.8 K, 22998 kPa, x2 = 0.0218	675.69
332.8 K, 24009 kPa, x2 = 0.0218	676.63
